Results reported in PMC10905675, “INX-315, a Selective CDK2 Inhibitor, Induces Cell Cycle Arrest and Senescence in Solid Tumors” (Cancer Discovery, 2023).
Where two headings read alike, the source gives them in different places.

How the values were obtained:
SPHK1 = target: T1, SPHK1 (Homo sapiens, UniProt Q9NYA1); assay: SelectScreen Adapta; assay type: biochemical; conditions: INX-0315 at 100nM
T1 construct: purchased Thermo Fisher Scientific SelectScreen (plus Nanosyn / Reaction Biology for CDK/cyclin lines)
Text: (§1) INX-315 was first evaluated in the SelectScreen Biochemical Kinase Profiling at Thermo Fisher Scientific (Madison, WI). The primary screen consisted of INX-315 dosed at a single concentration of 100 nmol/L in 1% DMSO across each platform within the SelectScreen array of assays, LanthaScreen Eu Kinase Binding Assay; AdaptaScreen; and Z'LyteScreen using preestablished conditions at Thermo Fisher Scientific as shown in Supplementary Table S2. […] The follow-up screen consisted of 10-point dose–response curves for INX-315 from 1 µmol/L to 0.0495 nmol/L.

NUAK1 (ARK5) = target: T2, NUAK1 (ARK5) (Homo sapiens, UniProt O60285); assay: SelectScreen Adapta; assay type: biochemical; conditions: INX-0315 at 100nM
T2 construct: purchased Thermo Fisher Scientific SelectScreen (plus Nanosyn / Reaction Biology for CDK/cyclin lines)
Text: as §1

[1] = target: T3, PIK3CA E545K/PIK3R1 (p110 alpha E545K/p85 alpha) (Homo sapiens, UniProt P42336, E545K); assay: SelectScreen Adapta; assay type: biochemical; conditions: INX-0315 at 100nM
T3 construct: purchased Thermo Fisher Scientific SelectScreen (plus Nanosyn / Reaction Biology for CDK/cyclin lines)
Text: as §1

PI4K2A (PI4K2 alpha) = target: T4, PI4K2A (PI4K2 alpha) (Homo sapiens, UniProt Q9BTU6); assay: SelectScreen Adapta; assay type: biochemical; conditions: INX-0315 at 100nM
T4 construct: purchased Thermo Fisher Scientific SelectScreen (plus Nanosyn / Reaction Biology for CDK/cyclin lines)
T4 sequence (Q9BTU6 whole entry): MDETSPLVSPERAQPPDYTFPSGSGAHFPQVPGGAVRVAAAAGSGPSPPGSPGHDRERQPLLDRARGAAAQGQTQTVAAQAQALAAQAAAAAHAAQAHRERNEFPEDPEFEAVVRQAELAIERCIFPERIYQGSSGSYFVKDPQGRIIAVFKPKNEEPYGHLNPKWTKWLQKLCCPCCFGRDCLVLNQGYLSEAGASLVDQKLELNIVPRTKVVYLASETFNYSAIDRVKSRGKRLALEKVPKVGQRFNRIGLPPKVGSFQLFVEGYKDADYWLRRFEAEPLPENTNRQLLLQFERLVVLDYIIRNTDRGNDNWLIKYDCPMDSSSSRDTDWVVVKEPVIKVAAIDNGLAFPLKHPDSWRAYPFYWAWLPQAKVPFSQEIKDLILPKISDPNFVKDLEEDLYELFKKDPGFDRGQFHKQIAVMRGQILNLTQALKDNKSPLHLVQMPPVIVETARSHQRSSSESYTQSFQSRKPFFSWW
Text: as §1

[2] = target: T5, PIK3CA E542K/PIK3R1 (p110 alpha E542K/p85 alpha) (Homo sapiens, UniProt P42336, E542K); assay: SelectScreen Adapta; assay type: biochemical; conditions: INX-0315 at 100nM
T5 construct: purchased Thermo Fisher Scientific SelectScreen (plus Nanosyn / Reaction Biology for CDK/cyclin lines)
Text: as §1

LRRK2 G2019S = target: T6, LRRK2 G2019S (Homo sapiens, UniProt Q5S007, G2019S); assay: SelectScreen Adapta; assay type: biochemical; conditions: INX-0315 at 100nM
T6 construct: purchased Thermo Fisher Scientific SelectScreen (plus Nanosyn / Reaction Biology for CDK/cyclin lines)
Text: as §1

LRRK2 I2020T = target: T7, LRRK2 I2020T (Homo sapiens, UniProt Q5S007, I2020T); assay: SelectScreen Adapta; assay type: biochemical; conditions: INX-0315 at 100nM
T7 construct: purchased Thermo Fisher Scientific SelectScreen (plus Nanosyn / Reaction Biology for CDK/cyclin lines)
T7 sequence (Q5S007 whole entry I2020T): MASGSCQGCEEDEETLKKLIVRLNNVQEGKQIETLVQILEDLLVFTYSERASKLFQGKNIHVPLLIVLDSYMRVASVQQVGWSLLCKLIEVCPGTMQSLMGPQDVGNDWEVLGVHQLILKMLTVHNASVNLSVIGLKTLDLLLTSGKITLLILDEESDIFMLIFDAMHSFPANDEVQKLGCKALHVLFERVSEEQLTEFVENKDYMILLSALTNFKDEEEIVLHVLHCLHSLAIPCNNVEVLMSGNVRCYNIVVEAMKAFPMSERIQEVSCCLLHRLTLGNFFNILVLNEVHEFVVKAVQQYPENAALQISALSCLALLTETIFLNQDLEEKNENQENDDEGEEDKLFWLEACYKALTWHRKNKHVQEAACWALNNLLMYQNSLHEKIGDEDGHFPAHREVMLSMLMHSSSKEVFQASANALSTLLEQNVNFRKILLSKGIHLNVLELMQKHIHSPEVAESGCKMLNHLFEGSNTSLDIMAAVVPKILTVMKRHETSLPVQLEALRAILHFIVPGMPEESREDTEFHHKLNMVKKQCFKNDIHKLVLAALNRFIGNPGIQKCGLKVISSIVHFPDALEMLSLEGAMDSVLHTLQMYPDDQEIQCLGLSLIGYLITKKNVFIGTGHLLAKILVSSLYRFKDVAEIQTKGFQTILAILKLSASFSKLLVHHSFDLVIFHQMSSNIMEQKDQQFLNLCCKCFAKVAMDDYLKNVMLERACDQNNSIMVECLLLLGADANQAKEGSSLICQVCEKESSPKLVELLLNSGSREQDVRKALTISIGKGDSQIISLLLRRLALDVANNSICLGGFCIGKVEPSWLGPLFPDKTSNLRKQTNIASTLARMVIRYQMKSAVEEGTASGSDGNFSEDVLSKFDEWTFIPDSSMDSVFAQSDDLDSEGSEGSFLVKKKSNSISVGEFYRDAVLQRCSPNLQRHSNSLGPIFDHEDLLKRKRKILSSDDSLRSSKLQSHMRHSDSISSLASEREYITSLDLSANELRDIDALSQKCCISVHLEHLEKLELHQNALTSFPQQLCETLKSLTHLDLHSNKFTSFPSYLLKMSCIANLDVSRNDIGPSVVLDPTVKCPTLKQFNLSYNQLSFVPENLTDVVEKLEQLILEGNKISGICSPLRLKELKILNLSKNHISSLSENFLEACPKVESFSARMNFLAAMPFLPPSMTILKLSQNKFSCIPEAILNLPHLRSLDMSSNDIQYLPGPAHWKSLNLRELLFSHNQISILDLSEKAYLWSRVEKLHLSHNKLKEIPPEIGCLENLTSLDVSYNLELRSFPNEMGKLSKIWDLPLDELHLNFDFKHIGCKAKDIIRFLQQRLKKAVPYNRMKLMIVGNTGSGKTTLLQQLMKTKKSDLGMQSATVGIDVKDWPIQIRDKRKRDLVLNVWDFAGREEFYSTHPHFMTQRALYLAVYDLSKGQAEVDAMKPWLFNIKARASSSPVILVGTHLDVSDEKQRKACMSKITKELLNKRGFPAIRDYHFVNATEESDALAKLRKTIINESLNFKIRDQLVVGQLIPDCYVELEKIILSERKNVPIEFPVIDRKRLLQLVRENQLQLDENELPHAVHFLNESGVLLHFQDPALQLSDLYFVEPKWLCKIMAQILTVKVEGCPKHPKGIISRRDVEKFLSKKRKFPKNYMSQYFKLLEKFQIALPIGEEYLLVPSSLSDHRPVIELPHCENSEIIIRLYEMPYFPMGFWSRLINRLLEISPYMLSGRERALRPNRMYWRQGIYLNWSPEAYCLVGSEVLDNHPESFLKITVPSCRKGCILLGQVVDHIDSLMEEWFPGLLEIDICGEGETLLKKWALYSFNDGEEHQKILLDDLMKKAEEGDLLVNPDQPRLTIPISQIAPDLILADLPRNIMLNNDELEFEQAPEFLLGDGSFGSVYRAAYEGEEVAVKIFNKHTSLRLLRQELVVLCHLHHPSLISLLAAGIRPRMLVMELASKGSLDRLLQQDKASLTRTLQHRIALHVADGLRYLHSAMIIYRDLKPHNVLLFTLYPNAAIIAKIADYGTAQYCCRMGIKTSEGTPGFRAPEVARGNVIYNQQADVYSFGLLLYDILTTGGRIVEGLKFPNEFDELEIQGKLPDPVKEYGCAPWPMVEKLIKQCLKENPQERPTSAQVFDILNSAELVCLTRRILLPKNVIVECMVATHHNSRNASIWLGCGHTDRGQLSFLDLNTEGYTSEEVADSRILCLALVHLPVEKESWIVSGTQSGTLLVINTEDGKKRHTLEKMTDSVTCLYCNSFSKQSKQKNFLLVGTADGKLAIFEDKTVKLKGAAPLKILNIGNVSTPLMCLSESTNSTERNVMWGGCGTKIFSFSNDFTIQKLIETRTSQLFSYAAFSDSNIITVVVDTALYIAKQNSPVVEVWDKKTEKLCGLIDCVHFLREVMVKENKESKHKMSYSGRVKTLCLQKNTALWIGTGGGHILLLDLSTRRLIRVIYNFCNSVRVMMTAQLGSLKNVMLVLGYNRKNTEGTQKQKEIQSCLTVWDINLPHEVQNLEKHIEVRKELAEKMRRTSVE
Text: as §1

[3] = target: T8, PIK3CB/PIK3R1 (p110 beta/p85 alpha) (Homo sapiens, UniProt P42338); assay: SelectScreen Adapta; assay type: biochemical; conditions: INX-0315 at 100nM
T8 construct: purchased Thermo Fisher Scientific SelectScreen (plus Nanosyn / Reaction Biology for CDK/cyclin lines)
Text: as §1

LRRK2 = target: T9, LRRK2 (Homo sapiens, UniProt Q5S007); assay: SelectScreen Adapta; assay type: biochemical; conditions: INX-0315 at 100nM
T9 construct: purchased Thermo Fisher Scientific SelectScreen (plus Nanosyn / Reaction Biology for CDK/cyclin lines)
Text: as §1

PIP5K1C = target: T10, PIP5K1C (Homo sapiens, UniProt O60331); assay: SelectScreen Adapta; assay type: biochemical; conditions: INX-0315 at 100nM
T10 construct: purchased Thermo Fisher Scientific SelectScreen (plus Nanosyn / Reaction Biology for CDK/cyclin lines)
Text: as §1

LRRK2 R1441C = target: T11, LRRK2 R1441C (Homo sapiens, UniProt Q5S007, R1441C); assay: SelectScreen Adapta; assay type: biochemical; conditions: INX-0315 at 100nM
T11 construct: purchased Thermo Fisher Scientific SelectScreen (plus Nanosyn / Reaction Biology for CDK/cyclin lines)
T11 sequence (Q5S007 whole entry R1441C): as the sequence (Q5S007 whole entry I2020T) above, with R1441C, T2020I counted along it
Text: as §1

PI4K2B (PI4K2 beta) = target: T12, PI4K2B (PI4K2 beta) (Homo sapiens, UniProt Q8TCG2); assay: SelectScreen Adapta; assay type: biochemical; conditions: INX-0315 at 100nM
T12 construct: purchased Thermo Fisher Scientific SelectScreen (plus Nanosyn / Reaction Biology for CDK/cyclin lines)
Text: as §1

DAPK1 = target: T13, DAPK1 (Homo sapiens, UniProt P53355); assay: SelectScreen Adapta; assay type: biochemical; conditions: INX-0315 at 100nM
T13 construct: purchased Thermo Fisher Scientific SelectScreen (plus Nanosyn / Reaction Biology for CDK/cyclin lines)
Text: as §1

LRRK2 FL = target: T14, LRRK2 FL (Homo sapiens, UniProt Q5S007); assay: SelectScreen Adapta; assay type: biochemical; conditions: INX-0315 at 100nM
T14 construct: purchased Thermo Fisher Scientific SelectScreen (plus Nanosyn / Reaction Biology for CDK/cyclin lines)
T14 sequence (Q5S007 whole entry): as the sequence (Q5S007 whole entry I2020T) above, with T2020I counted along it
Text: as §1

LRRK2 G2019S FL = target: T15, LRRK2 G2019S FL (Homo sapiens, UniProt Q5S007, G2019S); assay: SelectScreen Adapta; assay type: biochemical; conditions: INX-0315 at 100nM
T15 construct: purchased Thermo Fisher Scientific SelectScreen (plus Nanosyn / Reaction Biology for CDK/cyclin lines)
Text: as §1

PIK3C2G (PI3K-C2 gamma) = target: T16, PIK3C2G (PI3K-C2 gamma) (Homo sapiens, UniProt O75747); assay: SelectScreen Adapta; assay type: biochemical; conditions: INX-0315 at 100nM
T16 construct: purchased Thermo Fisher Scientific SelectScreen (plus Nanosyn / Reaction Biology for CDK/cyclin lines)
Text: as §1

CDK2/cyclin A2 = target: T17, CDK2/cyclin A2 (Homo sapiens, UniProt P24941); assay: Nanosyn biochemical assay; conditions: Supp Fig S1D, representative dose response curve, read-out: IC50 CDK2 - Cyclin A
T17 construct: purchased Millipore 14-448
Protocol: (§2) Compounds were tested in kinase assays (Nanosyn, Inc.). The assays were completed using microfluidic kinase detection technology (Caliper Assay Platform). The compounds were tested in 12-point dose–response format in singlicate at the Km for ATP. Phosphoacceptor substrate peptide concentration used was 1 µmol/L and staurosporine was used as the reference compound for all assays. Details for individual Nanosyn assays performed are provided here: […]

CDK6/cyclin D3 = target: T18, CDK6/cyclin D3 (Homo sapiens, UniProt Q00534); assay: Nanosyn biochemical assay; conditions: Supp Fig S1D, representative dose response curve, read-out: IC50 CDK6 - Cyclin D3
T18 construct: purchased Carna 04-107
Protocol: as §2

CDK9/cyclin T1 = target: T19, CDK9/cyclin T1 (Homo sapiens, UniProt P50750); assay: Nanosyn biochemical assay; conditions: Supp Fig S1D, representative dose response curve, read-out: IC50 CDK9 - Cyclin T1
T19 construct: purchased Carna 04-110
Protocol: as §2

CDK4/cyclin D1 = target: T20, CDK4/cyclin D1 (Homo sapiens, UniProt P11802); assay: Nanosyn biochemical assay
T20 construct: purchased ThermoFisher PV4400
T20 sequence (P11802 whole entry): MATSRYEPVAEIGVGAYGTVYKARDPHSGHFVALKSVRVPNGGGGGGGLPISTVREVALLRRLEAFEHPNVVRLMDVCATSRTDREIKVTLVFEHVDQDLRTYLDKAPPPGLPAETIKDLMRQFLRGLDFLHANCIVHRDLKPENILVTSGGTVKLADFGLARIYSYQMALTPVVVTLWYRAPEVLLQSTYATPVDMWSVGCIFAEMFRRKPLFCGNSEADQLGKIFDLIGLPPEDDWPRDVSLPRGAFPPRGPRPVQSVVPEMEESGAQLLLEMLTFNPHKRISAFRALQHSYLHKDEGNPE
T20 sequence (P24385 whole entry partner): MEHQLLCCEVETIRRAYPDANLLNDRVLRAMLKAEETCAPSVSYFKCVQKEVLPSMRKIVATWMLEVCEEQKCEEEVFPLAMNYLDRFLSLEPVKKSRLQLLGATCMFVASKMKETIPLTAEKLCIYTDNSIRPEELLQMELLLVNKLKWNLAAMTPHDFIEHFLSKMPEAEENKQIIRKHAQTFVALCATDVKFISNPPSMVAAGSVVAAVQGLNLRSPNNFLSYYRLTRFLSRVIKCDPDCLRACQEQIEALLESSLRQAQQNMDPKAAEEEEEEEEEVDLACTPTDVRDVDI
Protocol: as §2

CDK2/cyclin E1 = target: T21, CDK2/cyclin E1 (Homo sapiens, UniProt P24941); assay: Nanosyn biochemical assay; conditions: for IC50: Nanosyn
T21 construct: purchased Millipore 14-475
Protocol: as §2

CDK3/cyclin E1 = target: T22, CDK3/cyclin E1 (Homo sapiens, UniProt Q00526); assay: Nanosyn biochemical assay
T22 construct: purchased BPS 40103
Protocol: as §2

CDK5/p25 = target: T23, CDK5/p25 (Homo sapiens, UniProt Q00535); assay: Nanosyn biochemical assay; conditions: ATP at Km, value (SEM), read-out: IC50 (nmol/L) CDK5/p25
T23 construct: purchased BPS 40105
Protocol: as §2

CDK5 = target: T24, CDK5 (Homo sapiens, UniProt Q00535); assay: Nanosyn biochemical assay
T24 construct: purchased ThermoFisher PV3000
T24 sequence (Q00535 whole entry): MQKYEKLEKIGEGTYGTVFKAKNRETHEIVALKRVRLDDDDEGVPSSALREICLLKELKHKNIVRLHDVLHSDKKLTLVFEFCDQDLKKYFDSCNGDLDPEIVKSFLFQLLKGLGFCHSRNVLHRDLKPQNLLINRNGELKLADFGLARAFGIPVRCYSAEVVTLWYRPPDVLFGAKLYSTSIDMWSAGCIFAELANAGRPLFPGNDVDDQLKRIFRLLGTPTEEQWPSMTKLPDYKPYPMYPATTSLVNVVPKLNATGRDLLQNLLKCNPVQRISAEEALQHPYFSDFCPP
T24 sequence (Q15078 2-307 partner limits assumed): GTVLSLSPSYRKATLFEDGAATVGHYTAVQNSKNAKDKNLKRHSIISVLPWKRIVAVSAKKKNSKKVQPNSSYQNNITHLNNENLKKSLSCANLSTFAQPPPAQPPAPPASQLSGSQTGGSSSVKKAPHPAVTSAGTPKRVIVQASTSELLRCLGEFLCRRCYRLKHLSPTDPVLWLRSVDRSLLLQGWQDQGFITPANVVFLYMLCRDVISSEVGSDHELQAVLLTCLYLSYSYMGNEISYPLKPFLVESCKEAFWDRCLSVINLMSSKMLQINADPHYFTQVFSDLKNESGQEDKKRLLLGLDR
Protocol: as §2

CDK1/cyclin B1 = target: T25, CDK1/cyclin B1 (Homo sapiens, UniProt P06493); assay: Nanosyn biochemical assay
T25 construct: purchased Millipore 14-450M
T25 sequence (P06493 whole entry): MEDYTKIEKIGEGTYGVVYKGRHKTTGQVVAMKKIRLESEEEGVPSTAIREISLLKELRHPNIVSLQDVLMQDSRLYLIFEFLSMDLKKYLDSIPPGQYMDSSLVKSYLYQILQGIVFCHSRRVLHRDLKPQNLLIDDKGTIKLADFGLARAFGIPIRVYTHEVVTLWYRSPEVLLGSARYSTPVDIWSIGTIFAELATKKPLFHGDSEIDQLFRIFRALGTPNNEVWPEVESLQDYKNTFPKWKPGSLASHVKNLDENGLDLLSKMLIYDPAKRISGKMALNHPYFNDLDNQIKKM
T25 sequence (P14635 whole entry partner): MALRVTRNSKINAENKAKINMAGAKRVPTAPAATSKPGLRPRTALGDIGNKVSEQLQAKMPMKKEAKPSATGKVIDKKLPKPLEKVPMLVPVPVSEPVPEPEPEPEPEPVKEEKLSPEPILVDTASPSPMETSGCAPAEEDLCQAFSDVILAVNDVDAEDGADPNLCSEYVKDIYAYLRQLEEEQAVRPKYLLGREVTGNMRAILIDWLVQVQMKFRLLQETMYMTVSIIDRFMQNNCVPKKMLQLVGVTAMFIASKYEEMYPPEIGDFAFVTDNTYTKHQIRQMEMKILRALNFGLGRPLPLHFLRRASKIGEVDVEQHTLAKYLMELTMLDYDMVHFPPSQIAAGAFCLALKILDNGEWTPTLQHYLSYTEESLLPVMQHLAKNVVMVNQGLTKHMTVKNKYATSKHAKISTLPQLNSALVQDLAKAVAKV
Protocol: as §2

CDK7 = target: T26, CDK7 (Homo sapiens, UniProt P50613); assay: Nanosyn biochemical assay; conditions: Supp Fig S1C, value (SEM), read-out: IC50 (nM) CDK7
T26 construct: purchased Carna 04-108
Protocol: as §2

In the case of NS(=O)(=O)c1ccc(Nc2ncc3cc4n(c3n2)C2(CCCCC2)C(=O)NN4)cc1 [INX-315], the inhibition at 0.1 µM (SPHK1) is reported as -15%, the inhibition at 0.1 µM (NUAK1 (ARK5)) is reported as 68% and the inhibition at 0.1 µM [1] is reported as 0%. The inhibition at 0.1 µM (PI4K2A (PI4K2 alpha)) was 0%, the inhibition at 0.1 µM [2] was -1% and the inhibition at 0.1 µM (LRRK2 G2019S) was 34%. The inhibition at 0.1 µM (LRRK2 I2020T) was 28%, the inhibition at 0.1 µM [3] was -17% and the inhibition at 0.1 µM (LRRK2) was 29%. It also gave an inhibition at 0.1 µM (PIP5K1C) of 4%, an inhibition at 0.1 µM (LRRK2 R1441C) of 22% and an inhibition at 0.1 µM (PI4K2B (PI4K2 beta)) of -2%. For the same compound, the inhibition at 0.1 µM (DAPK1) was -8%, the inhibition at 0.1 µM (LRRK2 FL) was 37% and the inhibition at 0.1 µM (LRRK2 G2019S FL) was 40%. For the same compound, the inhibition at 0.1 µM (PIK3C2G (PI3K-C2 gamma)) was 6%, the IC50 (CDK2/cyclin A2) was 2.96 nM and the IC50 (CDK6/cyclin D3) was 291 nM. For the same compound, the IC50 (CDK9/cyclin T1) was 38.6 nM, the IC50 (CDK4/cyclin D1; Supp Fig S1C, value (SEM), read-out: IC50 (nM) CDK4/cyclin D1) was 126 nM and the IC50 (CDK4/cyclin D1; Supp Fig S1D, representative dose response curve, read-out: IC50 CDK4 - Cyclin D) was 127 nM. For the same compound, the IC50 (CDK2/cyclin E1; Supp Fig S1C, value (SEM), read-out: IC50 (nM) CDK2/cyclin E1) was 0.6 nM, the IC50 (CDK2/cyclin E1; Supp Fig S1D, representative dose response curve, read-out: IC50 CDK2 - Cyclin E) was 0.644 nM and the “increase in potency on CDK2 relative to compound C” value (CDK2/cyclin E1; biochemical IC50s) was roughly 10 fold. For the same compound, the “selectivity for CDK2 compared with CDK1” value (CDK2/cyclin E1; biochemical IC50s) was 50 fold, the IC50 (CDK3/cyclin E1; ATP at Km, value (SEM), read-out: IC50 (nmol/L) CDK3/cyclin E1) was 15.1 nmol/L and the IC50 (CDK3/cyclin E1; Supp Fig S1D, representative dose response curve, read-out: IC50 CDK3 - Cyclin E) was 15.1 nmol/L. It also gave an IC50 (CDK5/p25) of 21.4 nmol/L, an IC50 (CDK5; ATP at Km, value (SEM), read-out: IC50 (nmol/L) CDK5) of 23.1 nmol/L and an IC50 (CDK5; Supp Fig S1C, value (SEM), read-out: IC50 (nM) CDK5) of 23.1 nmol/L. For the same compound, the IC50 (CDK5; Supp Fig S1D, representative dose response curve, read-out: IC50 CDK5 - p35) was 23.1 nmol/L, the IC50 (CDK1/cyclin B1; Supp Fig S1C, value (SEM), read-out: IC50 (nM) CDK1/B1) was 30 nM and the IC50 (CDK1/cyclin B1; Supp Fig S1D, representative dose response curve, read-out: IC50 CDK1 - Cyclin B) was 29.1 nM. For the same compound, the IC50 (CDK7) was greater than 10000 nM.
